# Results from the supplement of paper PMC11208160.
# Assay: recombinant UMI read abundance after kanamycin selection (control-corrected) (log10(CPM+1)); higher = more efficient recombination; extreme values may be limits of the assay; sequences stand for … in AGTGCAGAGAAAATCGGCCAGTTTTCTCTGCCTGCAGTCCGCATGCCGTGGGACCCCTTGGGTTCTAACCTGTTGCCTAGATTTATGCAGCGGACTGCCTTTCTCCCAAAGTGATAAACCGG…AGGTTGGTTTCACT; site = the 11-nt donor
# In short: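 The measure is log10(CPM+1) for recombinant UMIs. These were PCR-amplified across the donor–target junction and sequenced after Escherichia coli carrying a donor and donor-binding-loop pair library and a target plasmid with T7-inducible IS621 bridge recombinase was plated on IPTG (0.07 mM) plus kanamycin or unselected. CPM were averaged over two replicates and scaled by control-derived factors.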
# 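Further: IS621 bridge recombinase in Escherichia coli cells against a fixed T5 target plasmid.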
row,Sequence,recombinant UMI read abundance (log10)
1,AGCAAGGCATGGACCGGTTTTCCCGGTAATCCGTATTTGCT (site AGTAAGGCTAG),0.238
2,AGCAATCCATGGACCGGTTTTCCCGGTAATCCGTATTTGAA (site AGCAATCCTTT),1.33
3,AGCAATCCATGGACCGGTTTTCCCGGTAATCCGTATTTGAA (site CGCAATCCTTT),0
4,AGCAATCCATGGACCGGTTTTCCCGGTAATCCGTATTTGAA (site GGCAATCCTTT),0.00676
5,AGCAATCCATGGACCGGTTTTCCCGGTAATCCGTATTTGAA (site TGCAATCCTTT),0.186
6,AGCACGTCATGGACCGGTTTTCCCGGTAATCCGTATTTGAC (site AGCACGTCTGT),2.28
7,AGCAGATCATGGACCGGTTTTCCCGGTAATCCGTATTTGAA (site AGCAGATCTTT),1.77
8,AGCAGTACATGGACCGGTTTTCCCGGTAATCCGTATTTGCG (site AGCAGTACTCG),1.25
9,AGCAGTGCATGGACCGGTTTTCCCGGTAATCCGTATTTGAG (site AGCAGTGCTCT),1.93
10,AGCATTACATGGACCGGTTTTCCCGGTAATCCGTATTTGAT (site AGCATTACTAT),1.01
11,AGCATTCCATGGACCGGTTTTCCCGGTAATCCGTATTTGTC (site AGCATTCCTGA),0
12,AGCCAAGCATGGACCGGTTTTCCCGGTAATCCGTATTTGTT (site AGCCAAGCTAA),1.09
13,AGCCAAGCATGGACCGGTTTTCCCGGTAATCCGTATTTGTT (site AGCCCAGCTAA),0.0145
14,AGCCAAGCATGGACCGGTTTTCCCGGTAATCCGTATTTGTT (site AGCCGAGCTAA),0.00778
15,AGCCAAGCATGGACCGGTTTTCCCGGTAATCCGTATTTGTT (site AGCCTAGCTAA),0.0061
16,AGCCCAGCATGGACCGGTTTTCCCGGTAATCCGTATTTGGG (site AGCACAGCTCC),0.0163
17,AGCCCAGCATGGACCGGTTTTCCCGGTAATCCGTATTTGGG (site AGCCCAGCTCC),0.35
18,AGCCCAGCATGGACCGGTTTTCCCGGTAATCCGTATTTGGG (site AGCGCAGCTCC),0.0133
19,AGCCCAGCATGGACCGGTTTTCCCGGTAATCCGTATTTGGG (site AGCTCAGCTCC),0.0182

row,Sequence,recombinant UMI read abundance (log10)
1,AGCCTAACATGGACCGGTTTTCCCGGTAATCCGTATTTGCT (site AGCCTAACTAG),0
2,AGCCTACCATGGACCGGTTTTCCCGGTAATCCGTATTTGTT (site AGCCTAACTAA),0
3,AGCCTACCATGGACCGGTTTTCCCGGTAATCCGTATTTGTT (site AGCCTACCTAA),0.0133
4,AGCCTACCATGGACCGGTTTTCCCGGTAATCCGTATTTGTT (site AGCCTAGCTAA),0.00248
5,AGCCTACCATGGACCGGTTTTCCCGGTAATCCGTATTTGTT (site AGCCTATCTAA),0.00614
6,AGCCTAGCATGGACCGGTTTTCCCGGTAATCCGTATTTGAT (site AGCCTAGCTAA),0.0122
7,AGCCTAGCATGGACCGGTTTTCCCGGTAATCCGTATTTGAT (site AGCCTAGCTAC),0.0164
8,AGCCTAGCATGGACCGGTTTTCCCGGTAATCCGTATTTGAT (site AGCCTAGCTAG),0
9,AGCCTAGCATGGACCGGTTTTCCCGGTAATCCGTATTTGAT (site AGCCTAGCTAT),0.0107
10,AGCCTAGCATGGACCGGTTTTCCCGGTAATCCGTATTTGTA (site AGCCTAGCTAA),0.0136
11,AGCCTAGCATGGACCGGTTTTCCCGGTAATCCGTATTTGTA (site AGCCTAGCTCA),0.0462
12,AGCCTAGCATGGACCGGTTTTCCCGGTAATCCGTATTTGTA (site AGCCTAGCTGA),0
13,AGCCTAGCATGGACCGGTTTTCCCGGTAATCCGTATTTGTA (site AGCCTAGCTTA),0.245
14,AGCCTAGCATGGACCGGTTTTCCCGGTAATCCGTATTTGTC (site AGCCTAGCTAA),0.199
15,AGCCTAGCATGGACCGGTTTTCCCGGTAATCCGTATTTGTC (site AGCCTAGCTCA),0.0312
16,AGCCTAGCATGGACCGGTTTTCCCGGTAATCCGTATTTGTC (site AGCCTAGCTGA),0
17,AGCCTAGCATGGACCGGTTTTCCCGGTAATCCGTATTTGTC (site AGCCTAGCTTA),0.0185
18,AGCCTATCATGGACCGGTTTTCCCGGTAATCCGTATTTGAC (site AGCCTATCTGT),0.685
19,AGCCTATCATGGACCGGTTTTCCCGGTAATCCGTATTTGAC (site AGCCTCTCTGT),0
